The results in this text go back to patent publication EP3041353B1, “COMPOSITIONS COMPRISING BACTERIOSTATIC AGENTS AND BRILLIANT BLUE G” (priority 2013, dated 2015).

In data set [1] the test system is Escherichia coli DH5α. Nature of the data set: Bacteriostatic effect of Octenidin with BBG: turbidity after 24 h incubation. In kind it is cell-based. On the set-up: key: +: Bakterienwachstum nach 24 h Inkubation; -: kein Bakterienwachstum nach 24 h Inkubation. Conditions: no BBG. On the procedure: (§1) Zur Untersuchung des Einflusses von BBG auf die bakteriostatische Wirkung wurden Bakterien 24 h mit erfindungsgemäßen Zusammensetzungen, Benzalkoniumchlorid (BAK) und Octenidin (Oct) als Bakteriostatikum enthielten, inkubiert. Wenn sich die Inkubationsmischung trübte, wurde das als Bakterienwachstum interpretiert. Zum Vergleich wurde Brillantblau R (BBR) anstelle von BBG eingesetzt. Die Ergebnisse sind in den Tabellen 1-4 wiedergegeben. Tabelle 1: Einfluss von BBG und BBR auf die bakteriostatische Wirkung von BAK gegenüber Escherichia coli (E. coli), + = Bakterienwachstum nach 24 h Inkubation, - = kein Bakterienwachstum nach 24 h Inkubation, R = Brillantblau R (BBR), G = Brillantblau G (BBG).
(§2) Gram-negative Bakterien (hier E. coli) sind widerstandsfähiger als Gram-positive Bakterien (hier Bacillus sp.) und wachsen konzentrationsabhängig. […] Tabelle 3: Einfluss von BBG auf die bakteriostatische Wirkung von Octenidin (Oct) gegenüber Gram-negativen Bakterien., + = Bakterienwachstum nach 24 h Inkubation, - = kein Bakterienwachstum nach 24 h Inkubation, BBG = Brillantblau G.

Data set [2] relates to Pseudomonas putida DSM 291. Described as above. On the set-up: key: +: Bakterienwachstum nach 24 h Inkubation; -: kein Bakterienwachstum nach 24 h Inkubation. In kind it is cell-based. The conditions noted are these: no BBG. How it is done:
as §1, §2

Data set [3] has as its system Vibrio sp. Gal12. The data set is described as above. The conditions noted are these: no BBG. The arrangement: key: +: Bakterienwachstum nach 24 h Inkubation; -: kein Bakterienwachstum nach 24 h Inkubation. In kind it is cell-based. How it is done:
as §1, §2

For data set [4], the system named is HCE-Zellen. In kind it is cell-based, human. On the procedure:
Die Erfindung wird im Folgenden rein zu Veranschaulichungszwecken anhand der angehängten Figuren und von Ausführungsbeispielen näher erläutert. • Figur 1 Effekt von 0,025% BBG auf die Toxizität von unterschiedlichen Konzentrationen (in Gew.-%) von Benzalkoniumchlorid (BAK) auf HCE-Zellen (HCE = human corneal epithelium, Menschliche Hornhautepithelzellen) bei verschiedenen Einwirkdauern (5, 30, 60 min). Oben: BAK ohne BBG. Unten: BAK mit BBG. Inkubationsmedium: Phosphat-gepufferte Kochsalzlösung (PBS). • Figur 2 Effekt von BBG (in Gew.-%) in unterschiedlichen Konzentrationen auf die Toxizität von BAK bei 0,003% (oben) und 0,008% (unten). PBS = Phosphat-gepufferte Kochsalzlösung; BBS = balanced salt solution (ausgeglichene Salzlösung). • Figur 3 Effekt von BBG (0,025 Gew.-%) auf die Toxizität von Octenidindihydrochlorid (Oct) in unterschiedlichen Konzentrationen (in Gew.-%) nach 5 min Inkubation (oben) und 30 min Inkubation (unten). Octenidin alone = Octenidin allein (ohne BBG). • Figur 4 Effekt von BBG (0,025 %) auf die Toxizität von Cetylpyridiniumchlorid (CPC) in unterschiedlichen Konzentrationen (in Gew.-%) nach 5 min Inkubation (oben) und 30 min Inkubation (unten). CPC alone = Cetylpyridiniumchlorid allein (ohne BBG). • Figur 5 Effekt von BBG (0,025 %) auf die Toxizität von Chlorhexidin (CHex) in Form von Chlorhexidindigluconat in unterschiedlichen Konzentrationen (in Gew.-%) nach 5 min Inkubation (oben) und 30 min Inkubation (unten). Chlorhexidin alone = Chlorhexidin allein (ohne BBG)
Figur 1 zeigt die Wirkung von BBG 0,025% Gew.-% auf die Toxizität von unterschiedlichen Konzentrationen (in Gew.-%) von Benzalkoniumchlorid (BAK) auf HCE-Zellen (HCE = human corneal epithelium, Menschliche Hornhautepithelzellen) bei verschiedenen Einwirkdauern (5, 30, 60 min).
Figur 2 zeigt die Wirkung von BBG (in Gew.-%) in unterschiedlichen Konzentrationen und zwei unterschiedlichen Medien (PBS und BSS) auf die Toxizität von BAK bei 0,003% (oben) und 0,008% (unten) bei HCE-Zellen. Die Schutzwirkung von BBG bei niedrigeren BAK-Konzentrationen setzt schon bei 0,003% BBG ein. Bei höheren BAK-Konzentrationen sind 0,015% notwendig.
Figur 3 zeigt die Wirkung von BBG (0,025 Gew.-%) auf die Toxizität von Octenidin (Oct) Form von Octenidindihydrochlorid in unterschiedlichen Konzentrationen (in Gew.-%) nach 5 min Inkubation (oben) und 30 min Inkubation (unten). Octenidin alone = Octenidin allein (ohne BBG). […] BBG (0,025 Gew.-%) kann diesen Effekt bei 5 min Inkubation (links) bis zu einer Oct-Konzentration von 0,01% (der höchsten getesteten Konzentration) verhindern. Bei 30 min Einwirkzeit (rechts) ist erst ab 0,009 Gew.-% Oct der Schutz nicht mehr maximal.
Die Figuren 4 und 5 zeigen die Wirkung von BBG (0,025 Gew.-%) auf die Toxizität von Cetylpyridiniumchlorid (CPC, Fig. 4) und Chlorhexidin (CHex in Form von Chlorhexidindigluconat, Fig. 5) in unterschiedlichen Konzentrationen (in Gew.-%) nach 5 min Inkubation (jeweils oben) und 30 min Inkubation (jeweils unten).

For data set [5], the system named is Bacillus megaterium. In words: Bacteriostatic effect of Octenidin with BBG: turbidity after 24 h incubation. In kind it is cell-based. The conditions noted are these: no BBG. The arrangement: key: +: Bakterienwachstum nach 24 h Inkubation; -: kein Bakterienwachstum nach 24 h Inkubation. On the procedure: as §1
(§3) Tabelle 4: Einfluss von BBG auf die bakteriostatische Wirkung von Octenidin (Oct) gegenüber Gram-positiven Bakterien., + = Bakterienwachstum nach 24 h Inkubation, - = kein Bakterienwachstum nach 24 h Inkubation, +/- = geringes Wachstum nach 24 h Inkubation, BBG = Brillantblau G.

The subject of data set [6] is Bacillus subtilis. The description is as above. The conditions noted are these: no BBG. In kind it is cell-based. The arrangement: key: +: Bakterienwachstum nach 24 h Inkubation; -: kein Bakterienwachstum nach 24 h Inkubation. How it is done: as §1, §3
The test system of data set [7] is Clavibacter michiganensis. Described as above. In kind it is cell-based. On the set-up: key: +: Bakterienwachstum nach 24 h Inkubation; -: kein Bakterienwachstum nach 24 h Inkubation. The conditions noted are these: no BBG. On the procedure: as §1, §3
The test system of data set [8] is Paenibacillus sp. The description is as above. In kind it is cell-based. The arrangement: key: +: Bakterienwachstum nach 24 h Inkubation; -: kein Bakterienwachstum nach 24 h Inkubation. The conditions noted are these: no BBG. How it is done:
as §1, §3

Data set [9] relates to Escherichia coli (E. coli). Nature of the data set: Bacteriostatic effect of BAK with BBG/BBR: turbidity after 24 h incubation. The arrangement: key to Bakterienwachstum nach 24 h Inkubation: +: Bakterienwachstum nach 24 h Inkubation; -: kein Bakterienwachstum nach 24 h Inkubation. In kind it is cell-based. On the procedure: as §1
Data set [10] relates to Bacillus sp. The data set is described as above. In kind it is cell-based. The arrangement: key to Bakterienwachstum nach 24 h Inkubation: +: Bakterienwachstum nach 24 h Inkubation; -: kein Bakterienwachstum nach 24 h Inkubation. How it is done: as §1
Tabelle 2: Einfluss von BBG und BBR auf die bakteriostatische Wirkung von BAK gegenüber Bacillus sp., + = Bakterienwachstum nach 24 h Inkubation, - = kein Bakterienwachstum nach 24 h Inkubation, R = Brillantblau R (BBR), G = Brillantblau G (BBG).

Turning to `CCCCCCCCN=c1ccn(CCCCCCCCCCn2ccc(=NCCCCCCCC)cc2)cc1` [Octenidin, reference compound], the “Bakterienwachstum nach 24 h Inkubation” value in data set [1] (Octenidin 0,01% alone), in [1] (Octenidin 0,002% alone), in [1] (Octenidin 0,003% alone), in data set [1] (Octenidin 0,005% alone), in [1] (Octenidin 0,007% alone) and in data set [1] (Octenidin 0,009% alone) was “-” each time. Moreover, the “Bakterienwachstum nach 24 h Inkubation” value in data set [2] (Octenidin 0,01% alone), in data set [2] (Octenidin 0,002% alone), in [2] (Octenidin 0,003% alone), in data set [2] (Octenidin 0,005% alone), in data set [2] (Octenidin 0,007% alone) and in data set [2] (Octenidin 0,009% alone) was “-” in each case. Moreover, the “Bakterienwachstum nach 24 h Inkubation” value in data set [3] (Octenidin 0,01% alone), in [3] (Octenidin 0,002% alone), in data set [3] (Octenidin 0,003% alone), in data set [3] (Octenidin 0,005% alone), in data set [3] (Octenidin 0,007% alone) and in data set [3] (Octenidin 0,009% alone) was “-” each time. For the same compound, the “Bakterienwachstum nach 24 h Inkubation” value in data set [5] (Octenidin 0,01% alone), in [5] (Octenidin 0,002% alone), in data set [5] (Octenidin 0,003% alone), in data set [5] (Octenidin 0,005% alone), in data set [5] (Octenidin 0,007% alone) and in [5] (Octenidin 0,009% alone) was “-” throughout. The “Bakterienwachstum nach 24 h Inkubation” value in data set [6] (Octenidin 0,01% alone), in data set [6] (Octenidin 0,002% alone), in data set [6] (Octenidin 0,003% alone), in [6] (Octenidin 0,005% alone), in data set [6] (Octenidin 0,007% alone) and in data set [6] (Octenidin 0,009% alone) was “-” each time. In addition, the “Bakterienwachstum nach 24 h Inkubation” value in data set [7] (Octenidin 0,01% alone), in data set [7] (Octenidin 0,002% alone), in data set [7] (Octenidin 0,003% alone), in [7] (Octenidin 0,005% alone), in data set [7] (Octenidin 0,007% alone) and in [7] (Octenidin 0,009% alone) was “-” each time. Also, the “Bakterienwachstum nach 24 h Inkubation” value in data set [8] (Octenidin 0,01% alone), in [8] (Octenidin 0,002% alone), in [8] (Octenidin 0,003% alone), in [8] (Octenidin 0,005% alone), in [8] (Octenidin 0,007% alone) and in [8] (Octenidin 0,009% alone) was “-” in each case. The “Toxizität (Zellschädigung)” value in data set [4] was “stark zellschädigend”.

With Benzalkoniumchlorid [BAK], the “Bakterienwachstum nach 24 h Inkubation” value is “-” in [9] (BAK 0,01% alone, no dye); “-” in data set [9] (BAK 0,001 % alone, no dye); “-” in data set [10] (BAK 0.001% alone, no dye).

Take Brillantblau R [BBR]: the “Bakterienwachstum nach 24 h Inkubation” value in data set [9] (0,007% R + BAK 0,01%) is “-”; in [9] (0,007% R + BAK 0,001 %), “+”; in data set [9] (0,007% R + BAK 0,0016%), “+”; in data set [9] (0,007% R + BAK 0,0025%), “-”; in [9] (0,007% R + BAK 0,004%), “-”; in data set [9] (0,007% R + BAK 0,006%), “-”. Moreover, the “Bakterienwachstum nach 24 h Inkubation” value in data set [9] (0,015% R + BAK 0,01%) was “-”; in data set [9] (0,015% R + BAK 0,001 %) it was “+”; in data set [9] (0,015% R + BAK 0,0016%), “+”; in data set [9] (0,015% R + BAK 0,0025%), “+”; in data set [9] (0,015% R + BAK 0,004%), “-”; in data set [9] (0,015% R + BAK 0,006%) it was “-”. For the same compound, the “Bakterienwachstum nach 24 h Inkubation” value in [9] (0,030% R + BAK 0,01%) is recorded as “-”; in data set [9] (0,030% R + BAK 0,001 %) it was “+”; in data set [9] (0,030% R + BAK 0,0016%), “+”; in data set [9] (0,030% R + BAK 0,0025%), “+”; in data set [9] (0,030% R + BAK 0,004%) it was “+”; in data set [9] (0,030% R + BAK 0,006%) it was “+”. For the same compound, the “Bakterienwachstum nach 24 h Inkubation” value is “+” in data set [9] (0,030% R, Kein BAK); “-” in data set [10] (0.007% R + BAK 0.001%); “-” in [10] (0.007% R + BAK 0.01%); “+” in data set [10] (0.030% R, Kein BAK). In addition, the “Einfluss auf die bakteriostatische Wirkung von BAK” value in data set [9] (Gram-negative Bakterien (E. coli), concentration dependent) is reported as “hebt einen Teil der bakteriostatischen Wirkung auf”. Also, the “Einfluss auf das Bakterienwachstum” value is on record as “beeinflussen das Bakterienwachstum nicht” in [9] (dye alone, no BAK (rechte Spalte, Tabelle 1)) and “beeinflussen das Bakterienwachstum nicht” in [10] (dye alone, no BAK (rechte Spalte, Tabelle 2)). Further, in data set [4] (dye given together with the bacteriostatic agent), the “Schutzwirkung (zelltoxische Wirkung der Bakteriostatika bei gleichzeitiger Gabe)” value is on record as “zeigte sich diese Schutzwirkung nicht”.
